Among the data in ChEMBL document CHEMBL4229500, “Iodine-mediated cyclization of cannabigerol (CBG) expands the cannabinoid biological and chemical space” (Bioorg Med Chem, 2018) are Efficacy, EC50 and IC50 values, retold here.

Format in all cases: cell-based
For assay [1], the target named is Transient receptor potential cation channel subfamily A member 1 (Rattus norvegicus) (UniProt Q6RI86). Briefly: Agonist activity at rat TRPA1 expressed in HEK293 cells assessed as increase in intracellular calcium level by fluo-4-AM dye based fluorescence assay relative to AITC. (In general: Calcium flux is commonly read through the fluorescence of an indicator in the cells.)

For assay [2], the target named is T1, Transient receptor potential cation channel subfamily A member 1 (Rattus norvegicus, UniProt Q6RI86). Briefly: Agonist activity at rat TRPA1 expressed in HEK293 cells assessed as increase in intracellular calcium level by fluo-4-AM dye based fluorescence assay.
Assay [3] concerns the target T1, Transient receptor potential cation channel subfamily A member 1. Nature of the assay: Antagonist activity at rat TRPA1 expressed in HEK293 cells assessed as inhibition of AITC-induced increase in intracellular calcium level pretreated for 5 mins followed by AITC addition by fluo-4-AM dye based fluorescence assay.
Assay [4] has as its target T2, Transient receptor potential cation channel subfamily V member 1 (Homo sapiens, UniProt Q8NER1). Nature of the assay: Agonist activity at human TRPV1 expressed in HEK293 cells assessed as increase in intracellular calcium level by Fluo-4-AM dye based fluorescence assay relative to ionomycin.
The target of assay [5] is T2, Transient receptor potential cation channel subfamily V member 1. Nature of the assay: Agonist activity at human TRPV1 expressed in HEK293 cells assessed as increase in intracellular calcium level by Fluo-4-AM dye based fluorescence assay.
For assay [6] the target is unchanged. Nature of the assay: Antagonist activity at human TRPV1 expressed in HEK293 cells assessed as inhibition of capsaicin-induced increase in intracellular calcium level pretreated for 5 mins followed by capsaicin addition by Fluo-4-AM dye based fluorescence assay.
Assay [7] addresses Transient receptor potential cation channel subfamily M member 8 (Rattus norvegicus, UniProt Q8R455). Briefly: Antagonist activity at rat TRPM8 expressed in HEK293 cells assessed as inhibition of icilin-induced increase in intracellular calcium level pretreated for 5 mins followed by icilin addition by Fluo-4-AM dye based fluorescence assay.
The target of assay [8] is T3, Transient receptor potential cation channel subfamily V member 2 (Rattus norvegicus) (UniProt Q9WUD2).
T3 sequence (whole entry): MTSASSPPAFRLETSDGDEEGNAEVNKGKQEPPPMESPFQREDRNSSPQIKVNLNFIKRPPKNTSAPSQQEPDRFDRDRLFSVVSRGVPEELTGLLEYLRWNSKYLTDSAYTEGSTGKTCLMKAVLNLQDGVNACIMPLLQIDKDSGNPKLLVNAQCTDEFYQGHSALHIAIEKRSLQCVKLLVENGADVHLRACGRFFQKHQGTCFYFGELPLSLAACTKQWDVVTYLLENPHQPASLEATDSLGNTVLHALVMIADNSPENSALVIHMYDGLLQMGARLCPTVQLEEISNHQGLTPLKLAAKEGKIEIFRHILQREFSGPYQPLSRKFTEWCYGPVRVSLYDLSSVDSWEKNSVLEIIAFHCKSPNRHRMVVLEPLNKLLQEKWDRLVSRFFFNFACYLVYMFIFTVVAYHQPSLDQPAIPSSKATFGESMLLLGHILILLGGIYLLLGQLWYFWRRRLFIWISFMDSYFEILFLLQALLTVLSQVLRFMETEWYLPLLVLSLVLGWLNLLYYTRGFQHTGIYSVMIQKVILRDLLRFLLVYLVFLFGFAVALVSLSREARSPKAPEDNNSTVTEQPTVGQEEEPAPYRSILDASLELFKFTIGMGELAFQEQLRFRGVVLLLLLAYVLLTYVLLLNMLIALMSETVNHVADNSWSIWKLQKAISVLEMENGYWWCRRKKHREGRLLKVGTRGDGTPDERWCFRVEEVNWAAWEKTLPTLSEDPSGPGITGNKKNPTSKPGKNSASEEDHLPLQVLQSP
Nature of the assay: Agonist activity at rat TRPV2 expressed in HEK293 cells assessed as increase in intracellular calcium level by Fluo-4-AM dye based fluorescence assay relative to ionomycin.

Assay [9] has as its target T4, Transient receptor potential cation channel subfamily V member 2 (Rattus norvegicus, UniProt Q9WUD2).
T4 sequence (Q9WUD2 whole entry): T3 sequence (whole entry)
Nature of the assay: Agonist activity at rat TRPV2 expressed in HEK293 cells assessed as increase in intracellular calcium level by Fluo-4-AM dye based fluorescence assay.

Assay [10] deals with T4, Transient receptor potential cation channel subfamily V member 2. Briefly: Antagonist activity at rat TRPV2 expressed in HEK293 cells assessed as inhibition of LPC-induced increase in intracellular calcium level pretreated for 5 mins followed by LPC addition by Fluo-4-AM dye based fluorescence assay.
For assay [11], the target named is T5, Transient receptor potential cation channel, subfamily V, member 3 (Rattus norvegicus) (UniProt E9PU00).
T5 sequence (whole entry): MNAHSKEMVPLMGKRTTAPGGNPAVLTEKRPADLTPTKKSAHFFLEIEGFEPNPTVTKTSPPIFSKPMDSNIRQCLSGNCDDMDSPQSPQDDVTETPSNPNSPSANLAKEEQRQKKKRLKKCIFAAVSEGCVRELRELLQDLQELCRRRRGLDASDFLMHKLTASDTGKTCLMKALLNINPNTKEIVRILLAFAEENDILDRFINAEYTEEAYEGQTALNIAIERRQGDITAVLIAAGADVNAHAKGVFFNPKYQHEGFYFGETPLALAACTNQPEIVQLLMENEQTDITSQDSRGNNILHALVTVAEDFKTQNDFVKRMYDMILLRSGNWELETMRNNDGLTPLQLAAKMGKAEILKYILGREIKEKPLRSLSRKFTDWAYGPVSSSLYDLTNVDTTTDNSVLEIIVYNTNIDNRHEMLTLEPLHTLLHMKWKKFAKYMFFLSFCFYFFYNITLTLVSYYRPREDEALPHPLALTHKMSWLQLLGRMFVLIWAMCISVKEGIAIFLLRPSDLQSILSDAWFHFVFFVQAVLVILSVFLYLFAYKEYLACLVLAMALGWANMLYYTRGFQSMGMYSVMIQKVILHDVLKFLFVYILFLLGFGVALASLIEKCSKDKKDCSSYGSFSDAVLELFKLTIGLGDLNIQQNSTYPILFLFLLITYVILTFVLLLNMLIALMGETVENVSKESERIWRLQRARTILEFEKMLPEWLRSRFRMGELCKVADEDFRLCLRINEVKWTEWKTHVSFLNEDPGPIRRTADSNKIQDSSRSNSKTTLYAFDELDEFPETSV
Nature of the assay: Agonist activity at […] expressed in HEK293 cells assessed as increase in intracellular calcium level by Fluo-4-AM dye based fluorescence assay relative to ionomycin.

Assay [12] concerns the target T6, Transient receptor potential cation channel, subfamily V, member 3 (Rattus norvegicus, UniProt E9PU00).
T6 sequence (E9PU00 whole entry): T5 sequence (whole entry)
Nature of the assay: Agonist activity at […] expressed in HEK293 cells assessed as increase in intracellular calcium level by Fluo-4-AM dye based fluorescence assay.

For assay [13], the target named is T6, Transient receptor potential cation channel, subfamily V, member 3. Nature of the assay: Antagonist activity at […] expressed in HEK293 cells assessed as inhibition of thymol-induced increase in intracellular calcium level pretreated for 5 mins followed by thymol addition by Fluo-4-AM dye based fluorescence assay.
Assay [14] deals with Transient receptor potential cation channel subfamily V member 4 (Rattus norvegicus) (UniProt Q9ERZ8). Nature of the assay: Agonist activity at rat TRPV4 expressed in HEK293 cells assessed as increase in intracellular calcium level by Fluo-4-AM dye based fluorescence assay relative to ionomycin.
For assay [15], the target named is T7, Transient receptor potential cation channel subfamily V member 4 (Rattus norvegicus, UniProt Q9ERZ8). Nature of the assay: Agonist activity at rat TRPV4 expressed in HEK293 cells assessed as increase in intracellular calcium level by Fluo-4-AM dye based fluorescence assay.
Assay [16] has as its target T7, Transient receptor potential cation channel subfamily V member 4. Nature of the assay: Antagonist activity at […] expressed in HEK293 cells assessed as inhibition of GSK1016790A-induced increase in intracellular calcium level pretreated for 5 mins followed by GSK1016790A addition by Fluo-4-AM dye based fluorescence assay.

T2 sequence (Q8NER1 whole entry): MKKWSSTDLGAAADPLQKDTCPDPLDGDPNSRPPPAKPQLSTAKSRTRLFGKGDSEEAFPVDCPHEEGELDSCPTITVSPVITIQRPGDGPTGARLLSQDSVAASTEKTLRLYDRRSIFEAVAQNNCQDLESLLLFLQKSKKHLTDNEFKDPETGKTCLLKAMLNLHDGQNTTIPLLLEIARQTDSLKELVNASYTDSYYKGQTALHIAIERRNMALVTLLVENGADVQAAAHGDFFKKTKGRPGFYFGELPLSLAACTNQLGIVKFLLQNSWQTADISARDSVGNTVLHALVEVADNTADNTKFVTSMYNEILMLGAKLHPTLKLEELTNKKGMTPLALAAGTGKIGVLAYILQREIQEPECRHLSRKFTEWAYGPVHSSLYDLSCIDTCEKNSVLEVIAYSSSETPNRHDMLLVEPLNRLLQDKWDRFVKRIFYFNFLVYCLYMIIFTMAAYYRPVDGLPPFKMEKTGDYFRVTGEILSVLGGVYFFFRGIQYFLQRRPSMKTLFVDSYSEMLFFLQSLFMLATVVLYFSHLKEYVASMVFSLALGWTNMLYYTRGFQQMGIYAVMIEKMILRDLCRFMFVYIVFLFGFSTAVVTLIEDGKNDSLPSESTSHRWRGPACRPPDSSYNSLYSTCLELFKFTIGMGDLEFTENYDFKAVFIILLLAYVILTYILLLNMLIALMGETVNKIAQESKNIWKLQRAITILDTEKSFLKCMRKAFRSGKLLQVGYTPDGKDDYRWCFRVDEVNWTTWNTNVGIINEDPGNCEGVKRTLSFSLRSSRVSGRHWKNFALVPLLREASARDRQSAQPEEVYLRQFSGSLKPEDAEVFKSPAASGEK
T1 sequence (Q6RI86 whole entry): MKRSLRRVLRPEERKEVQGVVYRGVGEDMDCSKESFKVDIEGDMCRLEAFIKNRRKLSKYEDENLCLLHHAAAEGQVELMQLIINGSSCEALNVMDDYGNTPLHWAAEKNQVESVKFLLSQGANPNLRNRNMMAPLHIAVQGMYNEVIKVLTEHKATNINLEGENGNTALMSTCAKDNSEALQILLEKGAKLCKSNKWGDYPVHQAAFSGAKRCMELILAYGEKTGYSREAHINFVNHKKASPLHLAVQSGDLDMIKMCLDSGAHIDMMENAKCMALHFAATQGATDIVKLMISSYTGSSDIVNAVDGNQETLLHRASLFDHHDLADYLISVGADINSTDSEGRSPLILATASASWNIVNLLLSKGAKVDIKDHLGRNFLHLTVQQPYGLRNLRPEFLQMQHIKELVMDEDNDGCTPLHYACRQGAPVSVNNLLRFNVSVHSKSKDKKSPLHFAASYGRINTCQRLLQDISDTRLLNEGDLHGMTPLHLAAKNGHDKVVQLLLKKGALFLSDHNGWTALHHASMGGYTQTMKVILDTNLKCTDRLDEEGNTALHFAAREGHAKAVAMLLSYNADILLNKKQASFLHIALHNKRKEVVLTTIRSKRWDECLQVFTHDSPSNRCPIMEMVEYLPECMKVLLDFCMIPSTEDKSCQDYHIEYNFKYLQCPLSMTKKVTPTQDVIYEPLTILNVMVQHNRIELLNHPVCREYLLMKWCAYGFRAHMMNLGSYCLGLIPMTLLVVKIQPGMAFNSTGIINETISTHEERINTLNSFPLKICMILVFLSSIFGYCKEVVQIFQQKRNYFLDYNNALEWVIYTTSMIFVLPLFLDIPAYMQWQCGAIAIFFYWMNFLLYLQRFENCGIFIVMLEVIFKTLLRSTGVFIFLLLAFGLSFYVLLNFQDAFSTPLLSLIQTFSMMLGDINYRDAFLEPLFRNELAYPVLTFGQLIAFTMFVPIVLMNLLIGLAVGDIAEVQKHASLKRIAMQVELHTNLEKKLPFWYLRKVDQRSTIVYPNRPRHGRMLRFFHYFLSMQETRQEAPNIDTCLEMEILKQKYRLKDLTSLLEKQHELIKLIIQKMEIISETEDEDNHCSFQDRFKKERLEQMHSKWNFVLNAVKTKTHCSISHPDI
Chain of Transient receptor potential cation channel subfamily A member 1 (Rattus norvegicus) (Q6RI86 whole entry): as above
Chain of Transient receptor potential cation channel subfamily M member 8 (Q8R455 whole entry): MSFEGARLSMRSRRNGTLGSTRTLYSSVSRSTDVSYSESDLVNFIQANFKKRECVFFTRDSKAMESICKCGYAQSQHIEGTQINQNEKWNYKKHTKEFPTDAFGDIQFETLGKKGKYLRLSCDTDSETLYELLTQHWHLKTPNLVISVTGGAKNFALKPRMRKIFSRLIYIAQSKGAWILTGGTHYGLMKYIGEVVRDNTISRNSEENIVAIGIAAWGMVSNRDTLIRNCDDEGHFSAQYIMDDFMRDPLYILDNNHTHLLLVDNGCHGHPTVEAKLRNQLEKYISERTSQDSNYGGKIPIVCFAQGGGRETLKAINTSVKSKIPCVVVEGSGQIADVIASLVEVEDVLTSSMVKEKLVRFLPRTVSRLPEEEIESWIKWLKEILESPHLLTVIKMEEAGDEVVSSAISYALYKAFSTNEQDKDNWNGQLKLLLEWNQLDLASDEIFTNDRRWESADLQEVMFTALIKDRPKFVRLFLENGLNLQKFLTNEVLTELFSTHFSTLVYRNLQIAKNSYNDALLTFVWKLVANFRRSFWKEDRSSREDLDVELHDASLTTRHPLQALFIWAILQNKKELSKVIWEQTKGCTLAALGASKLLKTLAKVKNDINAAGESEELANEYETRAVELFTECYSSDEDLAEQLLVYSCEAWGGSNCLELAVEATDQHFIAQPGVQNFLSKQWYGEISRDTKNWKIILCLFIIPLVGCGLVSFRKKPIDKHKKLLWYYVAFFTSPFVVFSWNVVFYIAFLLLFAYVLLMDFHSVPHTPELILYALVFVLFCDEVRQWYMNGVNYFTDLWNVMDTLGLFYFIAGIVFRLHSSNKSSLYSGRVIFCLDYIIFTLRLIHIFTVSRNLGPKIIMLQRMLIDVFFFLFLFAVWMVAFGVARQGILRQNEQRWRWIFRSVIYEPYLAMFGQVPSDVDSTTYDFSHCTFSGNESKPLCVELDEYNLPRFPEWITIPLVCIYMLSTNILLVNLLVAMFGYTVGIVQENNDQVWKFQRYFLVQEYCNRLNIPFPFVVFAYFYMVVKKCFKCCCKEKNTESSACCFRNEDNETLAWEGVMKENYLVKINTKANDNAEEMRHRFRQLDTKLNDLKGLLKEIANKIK
T7 sequence (Q9ERZ8 whole entry): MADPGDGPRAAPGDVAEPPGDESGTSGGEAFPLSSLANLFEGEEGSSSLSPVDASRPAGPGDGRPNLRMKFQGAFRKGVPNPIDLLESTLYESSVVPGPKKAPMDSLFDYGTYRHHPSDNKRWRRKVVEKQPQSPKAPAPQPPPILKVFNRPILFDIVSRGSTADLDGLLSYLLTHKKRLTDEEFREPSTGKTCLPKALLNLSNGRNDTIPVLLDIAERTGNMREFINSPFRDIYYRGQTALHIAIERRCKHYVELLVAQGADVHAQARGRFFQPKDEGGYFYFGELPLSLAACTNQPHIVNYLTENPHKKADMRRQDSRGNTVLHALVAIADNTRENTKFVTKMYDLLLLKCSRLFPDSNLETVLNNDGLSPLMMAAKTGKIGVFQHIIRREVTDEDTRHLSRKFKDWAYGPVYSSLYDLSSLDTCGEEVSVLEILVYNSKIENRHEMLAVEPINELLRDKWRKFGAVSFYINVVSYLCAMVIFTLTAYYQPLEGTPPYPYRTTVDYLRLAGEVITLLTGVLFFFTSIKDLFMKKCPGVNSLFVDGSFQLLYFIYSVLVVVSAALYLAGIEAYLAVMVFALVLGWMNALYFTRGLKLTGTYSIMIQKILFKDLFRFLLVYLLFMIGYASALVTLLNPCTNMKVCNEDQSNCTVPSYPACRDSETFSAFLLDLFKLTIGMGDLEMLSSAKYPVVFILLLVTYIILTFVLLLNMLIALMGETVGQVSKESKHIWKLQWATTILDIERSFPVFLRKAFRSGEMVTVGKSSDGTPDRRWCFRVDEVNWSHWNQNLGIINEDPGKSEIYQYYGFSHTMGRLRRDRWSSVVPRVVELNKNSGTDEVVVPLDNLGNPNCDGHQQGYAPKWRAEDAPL
Chain of Transient receptor potential cation channel subfamily V member 4 (Rattus norvegicus) (Q9ERZ8 whole entry): as above

In the case of `CCCCCc1cc(O)c2c(c1)OC(C)(CCCC(C)(C)c1ccc(C)cc1)CC2` (stereo unspecified), the Efficacy was 120% in [1]; less than 10% in assay [4]; less than 10% in [8]; less than 10% in assay [11]; 18% in assay [14]. The EC50 (commonly the midpoint of the concentration-response curve) in assay [2] is 0.35 µM; in [5] (hek293), “Not Active”; in assay [9] (hek293), “Not Active”; in [12] (hek293), “Not Active”; in [15] (read-out: EC50), 18 µM. For the same compound, the IC50 (usually the concentration needed to halve the response being measured) is 0.32 µM in [3]; more than 50 µM in assay [6]; more than 100 µM in assay [7]; 4.5 µM in assay [10]; more than 50 µM in [13]; more than 100 µM in [16].
As for `CCCCCc1cc(O)c2c(c1)O[C@@]1(C)CCCC(C)(C)[C@H]1C2`, the Efficacy is 98.5% in [1]; 48.5% in assay [4]; 31.7% in [8]; 17.5% in [11]; less than 10% in assay [14]. Further, the EC50 in assay [2] was 0.29 µM; in assay [5] (read-out: EC50), 2.6 µM; in [9] (read-out: EC50), 5.8 µM; in assay [12] (read-out: EC50) it was 6.7 µM; in [15] (hek293) it was “Not Active”. In addition, the IC50 was 0.27 µM in assay [3]; 5.9 µM in [6]; 17.1 µM in assay [7]; more than 100 µM in assay [10]; 8 µM in [13]; 3.9 µM in [16].
`CCCCCc1cc(O)c2c(c1)O[C@]1(C)CC[C@@H](I)C(C)(C)[C@H]1C2`: the Efficacy in assay [1] is 90%; in assay [4], less than 10%; in [8] it was less than 10%; in [11], less than 10%; in assay [14], less than 10%. Also, the EC50 in [2] was 2 µM; in assay [5] (hek293) it was “Not Active”; in assay [9] (hek293), “Not Active”; in assay [12] (hek293), “Not Active”; in assay [15] (hek293) it was “Not Active”. The IC50 in assay [3] is 4.8 µM; in [6], more than 100 µM; in assay [7] it was 7.2 µM; in assay [10] it was 2.3 µM; in assay [13], more than 50 µM; in [16] it was more than 100 µM.
`CCCCCc1cc(O)c2c(c1)O[C@]1(C)CCCC(C)(C)[C@H]1C2`: the Efficacy is 95.2% in [1]; less than 10% in assay [4]; 41.3% in [8]; less than 10% in [11]; less than 10% in [14]. The EC50 in [2] was 0.23 µM; in assay [5] (hek293) it was “Not Active”; in assay [9] (read-out: EC50) it was 8.4 µM; in assay [12] (hek293), “Not Active”; in assay [15] (hek293), “Not Active”. For the same compound, the IC50 in assay [3] is 0.26 µM; in [6] it was more than 100 µM; in [7], more than 100 µM; in [10], more than 100 µM; in [13] it was more than 50 µM; in assay [16], more than 100 µM.
As to `CCCCCc1cc(O)c2c(c1)O[C@]1(C2)[C@@H](C)CCCC1(C)C`, the Efficacy in [1] is 108%; in assay [4] it was 43.9%; in assay [8], 37.7%; in [11], less than 10%; in assay [14], 13.9%. Further, the EC50 in [2] was 0.49 µM; in [5] (read-out: EC50), 1.8 µM; in assay [9] (read-out: EC50), 4.7 µM; in assay [12] (hek293), “Not Active”; in [15] (read-out: EC50), 3.3 µM. Besides, the IC50 in [3] was 0.45 µM; in assay [6] it was 7.1 µM; in [7], more than 50 µM; in assay [10], 13.7 µM; in assay [13], 12.8 µM; in assay [16] it was 4.3 µM.
As to `CCCCCc1cc(O)c2c(c1)O[C@]1(C2)[C@H](C)CCCC1(C)C`, the Efficacy in [1] is 102%; in assay [4] it was 32.3%; in assay [8] it was 27.5%; in assay [11], less than 10%; in assay [14], less than 10%. Besides, the EC50 in assay [2] was 1.3 µM; in assay [5] (read-out: EC50) it was 4.9 µM; in assay [9] (read-out: EC50) it was 6.4 µM; in [12] (hek293), “Not Active”; in assay [15] (hek293) it was “Not Active”. Besides, the concentration for half-maximal inhibition (IC50) in [3] is 1.7 µM; in assay [6] it was 37 µM; in assay [7] it was more than 50 µM; in [10], more than 50 µM; in assay [13], more than 50 µM; in assay [16] it was 39.7 µM.
